Here are results for 31 compounds from patent publication US5525595A, “3- or 4-glycosyloxybenzopyran derivative and antiallergic agent containing the derivative as active ingredient” (priority 1993, dated 1996).

The test system of series [1] is airway resistance in experimental asthma model. Nature of the series: Effect on experimental asthma model in guinea pigs. The series is classed as in vivo, guinea pigs (Male hadley). Particulars: Cavia porcellus, Table 7; for inhibition in vivo at 100 mg/kg: 100 mg/kg oral, OVA challenge, guinea pigs. The method in brief:
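Male Hartley guinea pigs sensitized i.p. with 5 mg ovalbumin three times weekly, challenged 2 weeks later by 1 min inhalation of 1% OVA. Compounds dosed orally at 100 mg/kg in 0.5% CMCNa; airway resistance recorded 30 min, inhibition % from maximum resistance versus vehicle (n=5).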

For series [2] the following is noted: background statement; cited from earlier work.
Series [3] concerns homologous passive cutaneous anaphylaxis (PCA) reaction. Nature of the series: Effect on homologous passive cutaneous anaphylaxis (PCA) reaction in rats. It is filed as in vivo, rats (Male wistar rats). Particulars: Rattus norvegicus, 0.5 h; 100 mg/kg oral, 1 hour before antigen, rats; Table 3. The method in brief: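 Male Wistar rats (9 weeks) sensitized intradermally with anti-TNP-ascaris serum; 48 h later compounds dosed orally at 100 mg/kg in 0.5% CMCNa, n=5 per group. Challenge 1 h post-dose with i.v. TNP-As plus Evans Blue; blue-spot diameter measured at 30 min, inhibition calculated versus vehicle group.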

Series [4] relates to contact dermatitis induced by picryl chloride. Briefly: Effect on contact dermatitis induced by picryl chloride in mice (delayed type hypersensitization). The series is classed as in vivo. Particulars: Mus musculus; 100 mg/kg oral, ear thickness 24 hours after challenge; Table 6; read-out: Inhibition (%) against the increase of ear thickness. The gist of the method:
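Mice sensitized on abdomen with 7 mg picryl chloride, ear-challenged 7 days later with 1% picryl chloride; compounds dosed orally at 100 mg/kg in 0.5% CMCNa 1 h before and 16 h after challenge.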

`O=C(O)c1cc(=O)c2c(OCC(O)COc3cccc4oc(C(=O)O)cc(=O)c34)cccc2o1` [DSCG, reference compound] gave an inhibition in vivo at 20 mg/kg in series [1] (iv, positive control DSCG 20 mg/kg injected into the vein) of 50.5%. Besides, the gastrointestinal absorbability result in series [2] is on record as “extremely poor”.
Consider `CCCCCCCCCCOc1ccc2c(O[C@H]3O[C@H](CO)[C@@H](O)[C@H](O)[C@@H]3O)c(O)c(=O)oc2c1` [compound 81], for which the inhibition in vivo at 100 mg/kg in series [3] worked out at 48.3%; in series [1], 63.1%; in series [4], 50.8%.
Taken in the same sequence, the figures for `CCCCCCCCCCCCOc1ccc2c(O[C@H]3O[C@H](CO)[C@@H](O)[C@H](O)[C@@H]3O)c(O)c(=O)oc2c1` [compound 82] were 47.3%, 55.1% and 48.7%.
In the same order, the values of `CC(C)Oc1ccc2c(O[C@H]3O[C@H](CO)[C@@H](O)[C@H](O)[C@@H]3O)c(O)c(=O)oc2c1` [compound 83] are 49.3%, 46.9% and 49.1%.
For the compound `CCC=CCCOc1ccc2c(O[C@H]3O[C@H](CO)[C@@H](O)[C@H](O)[C@@H]3O)c(O)c(=O)oc2c1` [compound 84], the inhibition in vivo at 100 mg/kg in series [3] is 45.5%; in series [1], 47.1%; in series [4], 46.3%.
In the same order, the values of `CC(C)=CCC/C(C)=C/COc1ccc2c(O[C@H]3O[C@H](CO)[C@@H](O)[C@H](O)[C@@H]3O)c(O)c(=O)oc2c1` [compound 85] are 47.6%, 48.5% and 47.2%.
Consider `O=C(Oc1ccc2c(O[C@H]3O[C@H](CO)[C@@H](O)[C@H](O)[C@@H]3O)c(O)c(=O)oc2c1)c1ccccc1` [compound 86], for which the inhibition in vivo at 100 mg/kg in series [3] stood at 43%; in series [1], 41.2%; in series [4], 39.1%.
For `COc1ccc2c(O[C@H]3O[C@H](CO)[C@@H](O)[C@H](O)[C@@H]3O)c(OC(=O)c3ccccc3)c(=O)oc2c1` [compound 87], the inhibition in vivo at 100 mg/kg in series [3] amounted to 44.7%; in series [1] it was 42.5%; in series [4], 42.4%.
In the same order, the values of `CCCCOc1ccc2c(O[C@H]3O[C@H](CO)[C@@H](O)[C@H](O)[C@@H]3O)c(OC(C)=O)c(=O)oc2c1` [compound 88] are 45.8%, 43.5% and 40.2%.
In the case of `CCCCCCCCCCCCOc1ccc2c(O[C@H]3O[C@H](CO)[C@@H](O)[C@H](O)[C@@H]3O)c(OC(C)=O)c(=O)oc2c1` [compound 89], the inhibition in vivo at 100 mg/kg in series [3] stood at 43.7%; in series [1] it was 43.2%; in series [4], 41.2%.
In the same order, the values of `O=c1oc2cc(OCc3ccccc3)ccc2c(O[C@H]2O[C@H](CO)[C@@H](O)[C@H](O)[C@@H]2O)c1O` [compound 90] are 45.3%, 40.5% and 38.4%.
In the same order, the values of `O=c1oc2cc(O)ccc2c(O[C@@H]2O[C@H](CO)[C@H](O)[C@H](O)[C@H]2O)c1O` [compound 91] are 40.4%, 45.1% and 45.5%.
Taken in the same sequence, the figures for `COc1ccc2c(O[C@@H]3O[C@H](CO)[C@H](O)[C@H](O)[C@H]3O)c(O)c(=O)oc2c1` [compound 92] were 50.2%, 57.7% and 52.6%.
Take `CCCCOc1ccc2c(O[C@@H]3O[C@H](CO)[C@H](O)[C@H](O)[C@H]3O)c(O)c(=O)oc2c1` [compound 93]: the inhibition in vivo at 100 mg/kg in series [3] is 57.6%; in series [1], 60.5%; in series [4], 59.9%.
Consider `CCCCCCCCOc1ccc2c(O[C@@H]3O[C@H](CO)[C@H](O)[C@H](O)[C@H]3O)c(O)c(=O)oc2c1` [compound 94], for which the results for the inhibition in vivo at 100 mg/kg in series [3], in series [1] and in series [4] were 63.3%, 82.6% and 64.7%, respectively.
In the same order, the values of `CCCCCCCCCCOc1ccc2c(O[C@@H]3O[C@H](CO)[C@H](O)[C@H](O)[C@H]3O)c(O)c(=O)oc2c1` [compound 95] are 65.1%, 75.4% and 65.1%.
Taken in the same sequence, the figures for `CCCCCCCCCCCCOc1ccc2c(O[C@@H]3O[C@H](CO)[C@H](O)[C@H](O)[C@H]3O)c(O)c(=O)oc2c1` [compound 96] were 56.6%, 73.1% and 57.8%.
Regarding `CC(C)Oc1ccc2c(O[C@@H]3O[C@H](CO)[C@H](O)[C@H](O)[C@H]3O)c(O)c(=O)oc2c1` [compound 97], the inhibition in vivo at 100 mg/kg worked out at 55.7% in series [3], 63.2% in series [1] and 58.7% in series [4].
Regarding `CCC=CCCOc1ccc2c(O[C@@H]3O[C@H](CO)[C@H](O)[C@H](O)[C@H]3O)c(O)c(=O)oc2c1` [compound 98], the inhibition in vivo at 100 mg/kg in series [3] was 60.2%; in series [1], 72.8%; in series [4], 61.2%.
As for `CC(C)=CCC/C(C)=C/COc1ccc2c(O[C@@H]3O[C@H](CO)[C@H](O)[C@H](O)[C@H]3O)c(O)c(=O)oc2c1` [compound 99], the inhibition in vivo at 100 mg/kg in series [3] stood at 58.6%; in series [1], 77.7%; in series [4] it was 59.4%.
Taken in the same sequence, the figures for `O=C(Oc1ccc2c(O[C@@H]3O[C@H](CO)[C@H](O)[C@H](O)[C@H]3O)c(O)c(=O)oc2c1)c1ccccc1` [compound 100] were 42.6%, 67.8% and 44.9%.
As for `COc1ccc2c(O[C@@H]3O[C@H](CO)[C@H](O)[C@H](O)[C@H]3O)c(OC(=O)c3ccccc3)c(=O)oc2c1` [compound 101], the results for the inhibition in vivo at 100 mg/kg in series [3], in series [1] and in series [4] were 45.2%, 56.2% and 47.2%, respectively.
Taken in the same sequence, the figures for `CCCCOc1ccc2c(O[C@@H]3O[C@H](CO)[C@H](O)[C@H](O)[C@H]3O)c(OC(C)=O)c(=O)oc2c1` [compound 102] were 46.3%, 50.3% and 46.3%.
Taken in the same sequence, the figures for `CCCCCCCCCCCCOc1ccc2c(O[C@@H]3O[C@H](CO)[C@H](O)[C@H](O)[C@H]3O)c(OC(C)=O)c(=O)oc2c1` [compound 103] were 51.1%, 65.3% and 48.3%.
Taken in the same sequence, the figures for `O=c1oc2cc(OCc3ccccc3)ccc2c(O[C@@H]2O[C@H](CO)[C@H](O)[C@H](O)[C@H]2O)c1O` [compound 104] were 44.2%, 63.3% and 46.1%.
With `CC(=O)Oc1ccc2c(O[C@@H]3O[C@H](CO)[C@H](O)[C@H](O)[C@H]3O)c(O)c(=O)oc2c1` [compound 105], the inhibition in vivo at 100 mg/kg in series [3] came out at 51.4%; in series [1], 58.8%; in series [4] it was 47.8%.
As to `CC(=O)Oc1ccc2c(O[C@H]3O[C@H](CO)[C@@H](O)[C@H](O)[C@@H]3O)c(O)c(=O)oc2c1` [compound 106], the results for the inhibition in vivo at 100 mg/kg in series [3], in series [1] and in series [4] were 42.2%, 46.2% and 40.1%, respectively.
Taken in the same sequence, the figures for `CC(=O)Oc1ccc2c(O[C@@H]3O[C@H](CO)[C@@H](O)[C@H](O)[C@H]3O)c(O)c(=O)oc2c1` [compound 116] were 48%, 55.3% and 45.1%.
In the same order, the values of `CCCCCCOc1ccc2c(O[C@@H]3O[C@H](CO)[C@H](O)[C@H](O)[C@H]3O)c(O)c(=O)oc2c1` [compound 120] are 64.3%, 78.9% and 65.2%.
Taken in the same sequence, the figures for `CCCCCCOc1ccc2c(O[C@@H]3O[C@H](CO)[C@@H](O)[C@H](O)[C@H]3O)c(O)c(=O)oc2c1` [compound 121] were 63.7%, 75.1% and 63.7%.
Turning to `CCCCCCOc1ccc2c(O[C@H]3O[C@H](CO)[C@@H](O)[C@H](O)[C@@H]3O)c(O)c(=O)oc2c1` [compound 122], the inhibition in vivo at 100 mg/kg stood at 52.3% in series [3], 62.1% in series [1] and 53.2% in series [4].
